SMILES strings stand for the structures.

The text below walks through data of patent publication US8541588B2, “Sulfonamide derivatives” (Pfizer Limited, priority 2009, dated 2013).

The target of the assay is T1, Nav1.7 (or SCN9A) channel; HEK cells stably transfected with hSCN9A (Homo sapiens, UniProt Q15858).
T1 construct: expressed in transfected cells
T1 sequence (Q15858 whole entry): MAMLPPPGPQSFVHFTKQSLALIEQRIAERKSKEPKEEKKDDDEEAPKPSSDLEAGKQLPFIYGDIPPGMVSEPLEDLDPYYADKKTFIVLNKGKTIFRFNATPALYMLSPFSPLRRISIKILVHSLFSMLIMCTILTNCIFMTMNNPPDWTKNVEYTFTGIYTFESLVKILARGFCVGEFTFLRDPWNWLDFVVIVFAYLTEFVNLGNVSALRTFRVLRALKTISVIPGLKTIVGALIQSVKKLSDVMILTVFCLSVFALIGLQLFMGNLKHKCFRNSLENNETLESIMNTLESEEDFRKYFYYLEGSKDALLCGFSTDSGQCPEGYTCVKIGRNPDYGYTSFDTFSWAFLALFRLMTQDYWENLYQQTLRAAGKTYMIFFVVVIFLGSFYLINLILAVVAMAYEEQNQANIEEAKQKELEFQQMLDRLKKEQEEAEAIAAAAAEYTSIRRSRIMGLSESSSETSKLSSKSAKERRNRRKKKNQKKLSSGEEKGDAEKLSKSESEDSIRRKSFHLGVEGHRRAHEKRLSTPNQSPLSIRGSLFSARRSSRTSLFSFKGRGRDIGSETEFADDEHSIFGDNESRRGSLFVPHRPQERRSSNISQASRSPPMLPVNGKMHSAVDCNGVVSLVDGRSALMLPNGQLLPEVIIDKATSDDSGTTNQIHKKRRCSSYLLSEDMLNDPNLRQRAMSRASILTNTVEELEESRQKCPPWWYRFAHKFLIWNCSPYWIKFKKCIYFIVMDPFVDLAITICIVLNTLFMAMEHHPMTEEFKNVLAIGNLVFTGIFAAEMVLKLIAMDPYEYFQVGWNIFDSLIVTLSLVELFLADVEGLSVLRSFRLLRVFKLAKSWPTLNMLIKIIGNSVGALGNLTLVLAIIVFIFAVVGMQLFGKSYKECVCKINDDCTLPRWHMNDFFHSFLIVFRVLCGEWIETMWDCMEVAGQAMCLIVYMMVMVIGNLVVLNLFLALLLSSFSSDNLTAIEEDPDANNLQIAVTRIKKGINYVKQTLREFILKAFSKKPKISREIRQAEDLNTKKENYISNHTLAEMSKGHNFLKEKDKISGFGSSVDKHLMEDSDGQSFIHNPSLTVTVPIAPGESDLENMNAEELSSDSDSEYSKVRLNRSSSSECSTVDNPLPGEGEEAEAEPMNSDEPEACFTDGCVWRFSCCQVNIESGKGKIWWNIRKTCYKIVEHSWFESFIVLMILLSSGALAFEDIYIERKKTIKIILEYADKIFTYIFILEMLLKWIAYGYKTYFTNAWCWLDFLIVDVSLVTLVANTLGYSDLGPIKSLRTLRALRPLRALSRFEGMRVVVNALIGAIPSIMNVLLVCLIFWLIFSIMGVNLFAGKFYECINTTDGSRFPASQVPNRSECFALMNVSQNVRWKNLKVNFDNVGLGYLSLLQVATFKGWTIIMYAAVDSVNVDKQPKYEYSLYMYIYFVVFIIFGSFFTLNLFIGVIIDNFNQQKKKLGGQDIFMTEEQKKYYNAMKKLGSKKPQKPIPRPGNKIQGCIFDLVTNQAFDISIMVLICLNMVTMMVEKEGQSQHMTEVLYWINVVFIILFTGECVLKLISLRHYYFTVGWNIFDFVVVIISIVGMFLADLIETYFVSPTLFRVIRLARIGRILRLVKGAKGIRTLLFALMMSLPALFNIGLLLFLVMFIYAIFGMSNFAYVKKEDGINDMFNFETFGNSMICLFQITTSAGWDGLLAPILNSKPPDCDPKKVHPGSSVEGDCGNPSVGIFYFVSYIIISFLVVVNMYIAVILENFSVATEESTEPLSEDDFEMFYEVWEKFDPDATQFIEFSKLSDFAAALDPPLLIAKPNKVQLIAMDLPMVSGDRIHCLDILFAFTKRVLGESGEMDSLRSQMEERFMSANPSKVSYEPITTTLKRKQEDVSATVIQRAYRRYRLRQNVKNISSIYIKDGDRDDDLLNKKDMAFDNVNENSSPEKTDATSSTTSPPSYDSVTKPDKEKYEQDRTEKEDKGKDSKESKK
Description: Nav1.7 block, PatchXpress 7000 automated whole-cell voltage clamp, estimated IC50 (EIC50). The following applies: estimated IC50; hSCN9A HEK cells, PatchXpress platform; Examples 283-814. The assay is classed as cell-based.
On to `CC(C)Oc1cc(-c2cc(F)ccc2Oc2ccc(S(=O)(=O)Nc3cscn3)cc2C#N)n(C)n1` [Example 396, 3-cyano-4-[4-fluoro-2-(3-isopropoxy-1-methyl-1H-pyrazol-5-yl)phenoxy]-N-1,3-thiazol-4-ylbenzenesulfonamide], for which the 50% inhibitory concentration (IC50) was more than 3000 nM.

Consider `N#Cc1cc(S(=O)(=O)Nc2cscn2)ccc1Oc1ccc(Cl)cc1-n1cnc(C(F)(F)F)c1` [Example 397, 4-{4-chloro-2-[4-(trifluoromethyl)-1H-imidazol-1-yl]phenoxy}-3-cyano-N-1,3-thiazol-4-ylbenzenesulfonamide], for which the IC50 was more than 1000 nM.

`N#Cc1cc(S(=O)(=O)Nc2cscn2)ccc1Oc1ccc(Cl)cc1-c1ccn(C(F)(F)F)n1` [Example 398, 4-{4-chloro-2-[1-(trifluoromethyl)-1H-pyrazol-3-yl]phenoxy}-3-cyano-N-1,3-thiazol-4-ylbenzenesulfonamide]: the IC50 was more than 1000 nM.

Consider `N#Cc1cc(S(=O)(=O)Nc2cscn2)ccc1Oc1ccc(Cl)cc1-c1ccnn1C(F)(F)F` [Example 399, 4-{4-chloro-2-[1-(trifluoromethyl)-1H-pyrazol-5-yl]phenoxy}-3-cyano-N-1,3-thiazol-4-ylbenzenesulfonamide], for which the concentration for half-maximal inhibition (IC50) is 1200 nM.

Take `Cn1nccc1-c1ccccc1Oc1ccc(S(=O)(=O)Nc2cscn2)cc1C#N` [Example 400, 3-cyano-4-[2-(1-methyl-1H-pyrazol-5-yl)phenoxy]-N-1,3-thiazol-4-ylbenzenesulfonamide]: the concentration for half-maximal inhibition (IC50) was 1200 nM.

Consider `CCn1nc(C(F)(F)F)cc1-c1ccc(Oc2ccc(S(=O)(=O)Nc3cscn3)cc2C#N)cc1` [Example 401, 3-cyano-4-{4-[1-ethyl-3-(trifluoromethyl)-1H-pyrazol-5-yl]phenoxy}-N-1,3-thiazol-4-ylbenzenesulfonamide], for which the half-maximal inhibitory concentration (IC50) is 2700 nM.

Take `N#Cc1cc(S(=O)(=O)Nc2cscn2)ccc1Oc1ccc(Cl)cc1-c1ccnn1C(F)F` [Example 402, 4-{4-chloro-2-[1-(difluoromethyl)-1H-pyrazol-5-yl]phenoxy}-3-cyano-N-1,3-thiazol-4-ylbenzenesulfonamide]: the IC50 was 250 nM.

Regarding `Nc1cccc(-c2cc(Cl)ccc2Oc2cc(F)c(S(=O)(=O)Nc3ncns3)cc2Cl)n1` [Example 403, 4-[2-(6-aminopyridin-2-yl)-4-chlorophenoxy]-5-chloro-2-fluoro-N-1,2,4-thiadiazol-5-ylbenzenesulfonamide], the IC50 was 4.5 nM.

For the compound `CCn1nc(C(F)(F)F)cc1-c1ccc(Oc2cc(F)c(S(=O)(=O)Nc3ccc(F)cn3)cc2Cl)cc1` [Example 404, 5-chloro-4-{4-[1-ethyl-3-(trifluoromethyl)-1H-pyrazol-5-yl]phenoxy}-2-fluoro-N-(5-fluoropyridin-2-yl)benzenesulfonamide], the IC50 was 1200 nM.

In the case of `Nc1cc(-c2cc(F)ccc2Oc2cc(F)c(S(=O)(=O)Nc3ncns3)cc2Cl)ccn1` [Example 405, 4-[2-(2-aminopyridin-4-yl)-4-fluorophenoxy]-5-chloro-2-fluoro-N-1,2,4-thiadiazol-5-ylbenzenesulfonamide], the IC50 was 2.7 nM.

Regarding `Cn1ncnc1-c1cc(Cl)ccc1Oc1ccc(S(=O)(=O)Nc2nccs2)cc1F` [Example 406, 4-[4-chloro-2-(1-methyl-1H-1,2,4-triazol-5-yl)phenoxy]-3-fluoro-N-1,3-thiazol-2-ylbenzenesulfonamide], the IC50 was 3000 nM.

In the case of `Nc1cccc(-c2cc(F)ccc2Oc2cc(F)c(S(=O)(=O)Nc3ncns3)cc2F)n1` [Example 407, 4-[2-(6-aminopyridin-2-yl)-4-fluorophenoxy]-2,5-difluoro-N-1,2,4-thiadiazol-5-ylbenzenesulfonamide], the IC50 is 190 nM.

Turning to `CCn1nc(C(F)(F)F)cc1-c1ccc(Oc2ccc(S(=O)(=O)Nc3nccs3)cc2F)cc1` [Example 408, 4-{4-[1-ethyl-3-(trifluoromethyl)-1H-pyrazol-5-yl]phenoxy}-3-fluoro-N-1,3-thiazol-2-ylbenzenesulfonamide], the half-inhibitory concentration (IC50) is 300 nM.

For the compound `Nc1cccc(-c2cc(Cl)ccc2Oc2cc(F)c(S(=O)(=O)Nc3ncns3)cc2F)n1` [Example 409, 4-[2-(6-aminopyridin-2-yl)-4-chlorophenoxy]-2,5-difluoro-N-1,2,4-thiadiazol-5-ylbenzenesulfonamide], the IC50 is 19 nM.

In the case of `Nc1ccc(-c2cc(Cl)ccc2Oc2cc(F)c(S(=O)(=O)Nc3ncns3)cc2F)cn1` [Example 410, 4-[2-(6-aminopyridin-3-yl)-4-chlorophenoxy]-2,5-difluoro-N-1,2,4-thiadiazol-5-ylbenzenesulfonamide], the half-maximal inhibitory concentration (IC50) is 29 nM.

In the case of `Nc1ccc(-c2cc(Cl)ccc2Oc2cc(F)c(S(=O)(=O)Nc3ncns3)cc2F)nc1` [Example 411, 4-[2-(5-aminopyridin-2-yl)-4-chlorophenoxy]-2,5-difluoro-N-1,2,4-thiadiazol-5-ylbenzenesulfonamide], the IC50 was 540 nM.

`O=S(=O)(Nc1ncns1)c1cc(Cl)c(Oc2ccc(OC(F)F)cc2C2CCNCC2)cc1F` [Example 412, 5-chloro-4-[4-(difluoromethoxy)-2-piperidin-4-ylphenoxy]-2-fluoro-N-1,2,4-thiadiazol-5-ylbenzenesulfonamide]: the IC50 was 2.5 nM.

`Cn1nccc1-c1cc(Cl)ccc1Oc1ccc(S(=O)(=O)Nc2ncsc2Cl)cc1C#N` [Example 413, 4-[4-chloro-2-(1-methyl-1H-pyrazol-5-yl)phenoxy]-N-(5-chloro-1,3-thiazol-4-yl)-3-cyanobenzenesulfonamide]: the IC50 was 12000 nM.

As for `Cn1cc(-c2cc(Cl)ccc2Oc2ccc(S(=O)(=O)Nc3cscn3)cc2C#N)cn1` [Example 414, 4-[4-chloro-2-(1-methyl-1H-pyrazol-4-yl)phenoxy]-3-cyano-N-1,3-thiazol-4-ylbenzenesulfonamide], the IC50 was 1000 nM.

Take `N#Cc1cc(S(=O)(=O)Nc2cscn2)ccc1Oc1ccc(F)cc1-c1cnn(CC(F)(F)F)c1` [Example 415, 4-{4-fluoro-2-[1-(2,2,2-trifluoroethyl)-1H-pyrazol-4-yl]phenoxy}-3-cyano-N-1,3-thiazol-4-ylbenzenesulfonamide]: the half-inhibitory concentration (IC50) was more than 1000 nM.

As for `N#Cc1cc(S(=O)(=O)Nc2nccs2)ccc1Oc1ccc(Cl)cc1-n1cnnn1` [Example 416, 4-(4-chloro-2-(1H-tetrazol-1-yl)phenoxy)-3-cyano-N-(thiazol-2-yl)benzenesulfonamide], the half-inhibitory concentration (IC50) was 1600 nM.

For `N#Cc1cc(S(=O)(=O)Nc2cscn2)ccc1Oc1ccc(Cl)c(Cn2ccnc2)c1` [Example 418, 4-[4-chloro-3-(1H-imidazol-1-ylmethyl)phenoxy]-3-cyano-N-1,3-thiazol-4-ylbenzenesulfonamide], the IC50 was 2300 nM.

Turning to `CC(C)(C)n1cc(Cc2cccc(Oc3ccc(S(=O)(=O)Nc4cscn4)cc3C#N)c2)cn1` [Example 419, 4-{3-[(1-tert-butyl-1H-pyrazol-4-yl)methyl]phenoxy}-3-cyano-N-1,3-thiazol-4-ylbenzenesulfonamide], the 50% inhibitory concentration (IC50) was 2100 nM.

For the compound `N#Cc1cc(S(=O)(=O)Nc2ncccc2F)ccc1Oc1ccccc1-c1ccccc1` [Example 420, 4-(biphenyl-2-yloxy)-3-cyano-N-(3-fluoropyridin-2-yl)benzenesulfonamide], the IC50 was 24000 nM.

In the case of `N#Cc1cccc(NS(=O)(=O)c2ccc(Oc3ccccc3-c3ccccc3)c(C#N)c2)n1` [Example 421, 4-(biphenyl-2-yloxy)-3-cyano-N-(6-cyanopyridin-2-yl)benzenesulfonamide], the IC50 is 12000 nM.

Turning to `N#Cc1ccnc(NS(=O)(=O)c2ccc(Oc3ccccc3-c3ccccc3)c(C#N)c2)c1` [Example 422, 4-(biphenyl-2-yloxy)-3-cyano-N-(4-cyanopyridin-2-yl)benzenesulfonamide], the IC50 was more than 1000 nM.

For `Cc1ccc(NS(=O)(=O)c2ccc(Oc3ccccc3-c3ccccc3)c(C#N)c2)nc1` [Example 424, 4-(biphenyl-2-yloxy)-3-cyano-N-(5-methylpyridin-2-yl)benzenesulfonamide], the half-maximal inhibitory concentration (IC50) is more than 3000 nM.

Regarding `Cc1ccnc(NS(=O)(=O)c2ccc(Oc3ccccc3-c3ccccc3)c(C#N)c2)n1` [Example 425, 4-(biphenyl-2-yloxy)-3-cyano-N-(4-methylpyrimidin-2-yl)benzenesulfonamide], the IC50 is 11000 nM.

Regarding `N#Cc1cc(S(=O)(=O)Nc2cnc(Cl)nc2)ccc1Oc1ccccc1-c1ccccc1` [Example 426, 4-(biphenyl-2-yloxy)-N-(2-chloropyrimidin-5-yl)-3-cyanobenzenesulfonamide], the concentration for half-maximal inhibition (IC50) was 36000 nM.

With `N#Cc1cc(S(=O)(=O)Nc2ncc(F)cn2)ccc1Oc1ccccc1-c1ccccc1` [Example 427, 4-(biphenyl-2-yloxy)-3-cyano-N-(5-fluoropyrimidin-2-yl)benzenesulfonamide], the IC50 is 4300 nM.

Take `Cc1cncnc1NS(=O)(=O)c1ccc(Oc2ccccc2-c2ccccc2)c(C#N)c1` [Example 428, 4-(biphenyl-2-yloxy)-3-cyano-N-(5-methylpyrimidin-4-yl)benzenesulfonamide]: the half-maximal inhibitory concentration (IC50) is more than 10000 nM.

With `Cc1cnc(NS(=O)(=O)c2ccc(Oc3ccccc3-c3ccccc3)c(C#N)c2)nc1` [Example 429, 4-(biphenyl-2-yloxy)-3-cyano-N-(5-methylpyrimidin-2-yl)benzenesulfonamide], the half-maximal inhibitory concentration (IC50) was more than 10000 nM.

As for `N#Cc1cc(S(=O)(=O)Nc2ncc(Cl)cn2)ccc1Oc1ccccc1-c1ccccc1` [Example 430, 4-(biphenyl-2-yloxy)-N-(5-chloropyrimidin-2-yl)-3-cyanobenzenesulfonamide], the IC50 was 12000 nM.

Turning to `N#Cc1cc(S(=O)(=O)Nc2ncn[nH]2)ccc1Oc1ccccc1-c1ccccc1` [Example 431, 4-(biphenyl-2-yloxy)-3-cyano-N-1H-1,2,4-triazol-5-ylbenzenesulfonamide], the IC50 is 11000 nM.

As for `N#Cc1cnc(NS(=O)(=O)c2ccc(Oc3ccccc3-c3ccccc3)c(C#N)c2)nc1` [Example 432, 4-(biphenyl-2-yloxy)-3-cyano-N-(5-cyanopyrimidin-2-yl)benzenesulfonamide], the half-maximal inhibitory concentration (IC50) was more than 10000 nM.

Take `N#Cc1ccnc(NS(=O)(=O)c2ccc(Oc3ccccc3-c3ccccc3)c(C#N)c2)n1` [Example 433, 4-(biphenyl-2-yloxy)-3-cyano-N-(4-cyanopyrimidin-2-yl)benzenesulfonamide]: the concentration for half-maximal inhibition (IC50) is 15000 nM.
